From US20080177101A1, “Synthesis of isotopically labeled alpha-keto acids and esters” (Spectra Gases, Inc., priority 2006, published 2008)

Experiments:
[1] = background description; cited from earlier work
[2] = Concentration studies: stability of pyruvic acid solutions in water at higher concentrations; format: physicochemical; parameters: unit not given here; conditions: light, about 22° C. to about 26° C.
Protocol: Each of these commercial solutions were subjected to light for 6-weeks at temperatures ranging from about 22° C. to about 26° C. At each of the concentrations listed below, it was discovered that the pyruvic acid solutions were stable.

[3] = Titration of aqueous sample 4 with sodium hydroxide, composition by HPLC; format: physicochemical; conditions: sample 4 titrated with sodium hydroxide to pH of about 6.2
Source text: The molarity of sample 4 was confirmed to be 0.025M by titrating the aqueous sample with sodium hydroxide. […] It was also discovered that at pHs greater than 5.8, such as at a pH of about 6.2, some of the pyruvic acid was present in the form of a dimerized sodium salt. […] As such, it was discovered that to minimize dimmer formation, it may be necessary to control the pH of [1-^13C] pyruvate solutions, and in particular, any aqueous solution should be maintained at a pH of about 6.5 or less, more preferably 6.0 or less, and even more preferably 5.8 or less.

[4] = Shelf storage stability of [1-^13C] pyruvic acid in water, 1H and 13C NMR spectra compared; format: physicochemical; conditions: 0.025M in water
Protocol: Samples of isotopically labeled [1-^13C] pyruvic acid, having Formula VI and synthesized as discussed immediately below, were subjected to various conditions as depicted in Table 1, in order to establish the compound's shelf storage stability.
The resulting [1-^13C] pyruvic acid was tested as follows in Table 1:
^1H and ^13C NMR spectra of the distilled [1-^13C] pyruvic acid in water (0.025M) were acquired at the onset of the study and prior to exposing the samples to the various conditions specified in Table 1. ^1H and ^13C NMR spectra were again acquired for each of the samples after being exposed to the aforementioned conditions on a weekly basis for 12-weeks. The spectra acquired after exposure were compared visually and appeared to remain unchanged as compared with the spectra acquired prior to exposure, i.e. the spectra were as expected for [1-^13C] pyruvic acid in water. As such, it was concluded that each of the samples were shelf stable. Similarly, ^1H and ^13C NMR spectra acquired after 17-weeks of exposure remained unchanged as compared with the spectra acquired prior to exposure.

[5] = Sample 3, Room temperature (about 22° C. to about 26° C.), Dark
[6] = Sample 4, Room temperature (about 22° C. to about 26° C.), Light

Structure (SMILES) | Solubility in water [1] | Stability After 6-weeks ([2]; Concentration 2.3 in water) | Stability After 6-weeks ([2]; Concentration 2.8 in water) | Stability After 6-weeks ([2]; Concentration 3.8 in water) | Stability After 6-weeks ([2]; Concentration 5.7 in water) | Stability After 6-weeks ([2]; Concentration 11.3 in water) | Share of the pyruvic acid accounted for by dimerized salt [3] | Shelf stability, 12 weeks ([4]; Sample 1, −10° C., Dark) | Shelf stability, 17 weeks ([4]; Sample 1, −10° C., Dark) | Shelf stability, 12 weeks ([4]; Sample 2, 4° C., Dark) | Shelf stability, 17 weeks ([4]; Sample 2, 4° C., Dark) | Shelf stability, 12 weeks [4, 5] | Shelf stability, 17 weeks [4, 5] | Shelf stability, 12 weeks [4, 6] | Shelf stability, 17 weeks [4, 6]
CC(=O)C(=O)O [Pyruvic acid, 2-oxopropanoic acid] | soluble in water | Stable | Stable | Stable | Stable | Stable | – | – | – | – | – | – | – | – | –
CC(=O)[13C](=O)O [[1-^13C] pyruvic acid] | – | – | – | – | – | – | 4-6% | Stable | Stable | Stable | Stable | Stable | Stable | Stable | Stable
